{"source": "patent US10596190B2", "about": "“Method for reducing ototoxicity in pediatric patients receiving platinum-based chemotherapy” (priority 2017, dated 2020)", "key": {"[1]": {"system": "pediatric patients receiving cisplatin", "assay": "Phase 3 trial of Example 1: haematological and renal toxicity, adverse events", "experimental": "(§1) Cisplatin was administered as specified by each participant's cancer treatment plan. For participants randomly assigned to the control group, the cisplatin containing treatment regimen alone was to be administered. […] Concurrent use of other ototoxic drugs (eg, aminoglycosides and loop diuretics) was discouraged by protocol for all participants but captured in data reporting.\n(§2) Secondary endpoints were frequency-specific hearing loss at 4 weeks (for 500 Hz, 1000 Hz, 2000 Hz, 4000 Hz, and 8000 Hz), haematological and renal toxicity, event free survival (defined as the time from study enrolment until disease relapse or progression, diagnosis of a second malignant neoplasm, or death, whichever came first), and overall survival (defined as the time from enrolment to death or last date confirmed alive). By protocol amendment on Mar.\nFor haematological and renal toxicity, denominators represent the number of participants who completed the required toxicity assessment during each cycle. For both types of toxicity, we assessed the hypothesis of no difference in incidence using a χ^2 test of proportions."}, "[2]": {"system": "small cell lung cancer cell cultures", "settings": "cited from earlier work"}, "[3]": {"settings": "cited from earlier work"}, "[4]": {"system": "pediatric patients receiving cisplatin", "text": "as §2\nWe estimated the probability of remaining event free as a function of time post-enrolment using the method of Kaplan and Meier. We compared risk of event across groups defined by randomised regimen using the log-rank statistic. We generated relative hazard ratios (RHR) and 95% CIs by fitting a relative-risk regression model, using partial likelihood where the model contained the characteristic of interest as the only variable. We computed survival estimates as 3-year event-free survival and 3-year overall survival. We did a post-hoc analysis of event-free survival and overall survival by extent of disease using the same methods. We considered all eligible participants in the survival analyses by intention to treat. We did all statistical calculations using SAS (version 9.4) or Stata (version 14)."}, "[5]": {"system": "pediatric patients receiving cisplatin", "settings": "for Incidence of hearing loss / Hearing loss: 4 weeks; for Mean change in hearing threshold: baseline to 4 weeks after cisplatin, negative = better threshold", "text": "The study was designed as a multicentre, randomised, open-label, phase 3 clinical trial. Patients were enrolled at 38 participating Children's Oncology Group (COG) hospitals in the USA and Canada. Written consent or assent from participants or their legal guardians were obtained before registration. The study was approved by the US National Cancer Institute (NCI) Central Institutional Review Board and site institutional review boards. Co-enrollment onto a companion observational cohort study of ototoxicity grading scales was mandatory. Participants in the study were aged 1-18 years at study entry and were newly diagnosed with hepatoblastoma, germ cell tumour, medulloblastoma or CNS primitive neuroectodermal tumour, neuroblastoma, osteosarcoma, or other cancer types treated with cisplatin.\nKey eligibility criteria included planned cumulative cisplatin dose of 200 mg/m^2 or more and infusion duration of 6 h or less; performance score of 50 or more by the Karnofsky (>16 years) or Lansky (≤16 years) scales; no previous cisplatin or carboplatin treatment; no known thiol hypersensitivity; and normal institutional laboratory values reflecting haematological, renal, and hepatic function. Normal hearing was required before enrolment as defined by hearing thresholds of 20 dB hearing level (HL) or less at 500-8000 Hz when measured with earphones or 25 dB HL or less when measured in the sound field, or as defined by brainstem auditory evoked response thresholds equivalent to behavioural thresholds of 20 dB HL or less. Previous cranial irradiation was initially not allowed but later permitted, provided hearing was normal, by a protocol amendment (Mar. 31, 2010) to augment trial recruitment. Patients were not eligible if they were registered on a cancer directed COG therapeutic study to avoid potential confounding of the primary aims by the ACCL0431 randomization.\nThe randomization was centrally computer-generated by the COG trial management system. Allocation was electronically concealed to all investigators, clinicians, and participants. Site research staff did the enrolment, entering eligibility confirmation and specification of stratification factors into the COG trial management system, and receiving the electronically generated allocation for the site. Randomization was 1:1 and was initially stratified into four groups defined by age (<5 years or ≥5 years) and duration of cisplatin infusion (<2 h or ≥2 h). Later, we added one separate stratum for eligible participants who had previously received cranial irradiation, irrespective of age or duration of cisplatin infusion. Randomization was masked for central reviewers of audiometry data, but was not placebo controlled for participants or treating clinicians to minimise complexity and cost for participating sites.\nas §1\nHearing assessments were done at baseline, up to 8 days before each cisplatin course, 4 weeks after completion of the final cisplatin course, and 1 year later. Audiometry included measurement of bilateral pure tone air conduction thresholds at 500-8000 Hz with earphones or in the sound field using paediatric hearing assessment methods; otoscopy; immittance evaluation of middle ear function; and evoked otoacoustic emissions, if available. For participants unable to cooperate due to very young age, developmental disability, or medical status, brainstem auditory evoked response thresholds were to be measured instead.\nAudiological testing was completed using standard clinical audiometers, middle ear analyzers, evoked potentials systems, and evoked otoacoustic emission OAE systems (if available)."}, "[6]": {"system": "patients receiving Cisplatin chemotherapy for standard risk hepatoblastoma", "assay_type": "in vivo, human", "quoted_text": "The control arm included cisplatin only treated patients and the test arm including cisplatin treated patients followed by administration of STS.\nThe primary end point of the study was the rate of Brock grade ≥1 hearing loss determined after end of trial treatment or at an age of at least 3.5 years, whichever was later. Secondary end-points included: response to preoperative chemotherapy, complete resection, complete remission, event free survival (EFS), overall survival (OS), toxicity as graded by CTCAE v 3.0, long-term renal clearance, and feasibility of central audiology review\n• Pre-operative randomised 1:1 chemotherapy (4 courses of Cisplatin, with or without STS, every second week) • Surgical removal of all remaining tumour lesions.\nFor all patients, the pre-surgery courses were given on day 1, 15, 29 and 43 (exceptionally, if surgery was delayed, courses could also be given on day 57 and 71). Post-surgery courses were started as soon as possible, but within 21 days with two courses given on day 1 and 15. […] The following treatment schedules were followed:\nAdministration Pre-hydration • At least 3 hours pre-hydration with 2.5% dextrose/0.45% saline • Run at 200 ml/m2/hr (total volume 600 ml/m^2) Cisplatin infusion over 6 hours • Cisplatin in 0.9% sodium chloride. […]"}, "[7]": {"settings": "in a solution of sodium chloride; cited from earlier work"}, "[8]": {"settings": "all eligible, 61 participants assigned"}}, "note": "Like-named read-outs stand apart in the source and are kept apart here.", "data": [{"molecule": "sodium thiosulfate", "values": [{"measurement": "Hypokalaemia (most common non-haematological adverse event), participant cycles", "setting": "[1]; 25 of 147 participant cycles", "value": 17, "unit": "%"}, {"measurement": "Aggregate nephrotoxicity, participant cycles affected", "setting": "[1]; 37 of 147 participant cycles", "value": 25, "unit": "%"}, {"measurement": "Grade 3-4 neutropenia, participant cycles", "setting": "[1]; 117 of 177 participant cycles, irrespective of attribution", "value": 66, "unit": "%"}, {"measurement": "Haematological toxicity, participant cycles affected", "setting": "[1]; 137 of 177 participant cycles", "value": 77, "unit": "%"}, {"measurement": "Serious adverse events reported, number", "setting": "[1]; in 26 patients", "value": 194}, {"measurement": "Haematological serious adverse events, number", "setting": "[1]; in vivo", "value": 70}, {"measurement": "Hypophosphataemia and hypokalaemia vs control group", "setting": "[1]; in vivo", "value": "more common"}, {"measurement": "Increased creatinine or reduced glomerular filtration rate meeting CTCAE grade 3 threshold", "setting": "[1]; in vivo", "value": "no cases"}, {"measurement": "Non-haematological serious adverse events, number", "setting": "[1]; in vivo", "value": 85}, {"measurement": "Haematological serious adverse events deemed possibly related, number", "setting": "[1]; of 70", "value": "four"}, {"measurement": "Haematological serious adverse events deemed unlikely related, number", "setting": "[1]; of 70", "value": 13}, {"measurement": "Haematological serious adverse events deemed unrelated, number", "setting": "[1]; of 70", "value": 53}, {"measurement": "Haematological serious adverse events probably or definitely related", "setting": "[1]; of 70", "value": "none"}, {"measurement": "Non-haematological serious adverse events deemed possibly related, number", "setting": "[1]; of 85", "value": 11}, {"measurement": "Non-haematological serious adverse events deemed unlikely related, number", "setting": "[1]; of 85", "value": 25}, {"measurement": "Non-haematological serious adverse events deemed unrelated, number", "setting": "[1]; of 85", "value": 49}, {"measurement": "Non-haematological serious adverse events probably or definitely related", "setting": "[1]; of 85", "value": "none"}, {"measurement": "Serious adverse events deemed possibly related, number", "setting": "[1]; of 194", "value": 20}, {"measurement": "Serious adverse events deemed unlikely related, number", "setting": "[1]; of 194", "value": 62}, {"measurement": "Serious adverse events deemed unrelated, number", "setting": "[1]; of 194", "value": 112}, {"measurement": "Serious adverse events probably or definitely related", "setting": "[1]; of 194", "value": "none"}, {"measurement": "Serious adverse events: decreased platelet count, number", "setting": "[1]; of 194, in 12 participants", "value": 23}, {"measurement": "Serious adverse events: decreased neutrophil count, number", "setting": "[1]; of 194, in 14 participants", "value": 26}, {"measurement": "Serious adverse events: anaemia, number", "setting": "[1]; of 194, in ten participants", "value": 21}, {"measurement": "Effect of STS on cytotoxicity of etoposide", "setting": "[2]; immediate or delayed addition of STS, incubation for 72 hours", "value": "no reduction of cytotoxicity"}, {"measurement": "Effect of STS on anti-tumor activity of doxorubicin, carmustine (BCNU), paclitaxel or methotrexate", "setting": "[2]; similar studies", "value": "no reduction of anti-tumor activity"}, {"measurement": "Excreted unchanged in the urine", "setting": "[3]; following IV injection", "value": "Up to 95%"}, {"measurement": "Biological half-life", "setting": "[3]; in vivo", "value": 0.65, "unit": "hours"}, {"measurement": "Biological half-life, range dependent on dose", "setting": "[3]; in vivo", "value": "16.5-182 minutes"}, {"measurement": "Deaths, number", "setting": "[4]; [8]", "value": 17}, {"measurement": "Events, number", "setting": "[4]; [8]", "value": 26}, {"measurement": "Deaths, number", "setting": "[4]; disseminated disease", "value": 11}, {"measurement": "Events, number", "setting": "[4]; disseminated disease", "value": 12}, {"measurement": "Event-free survival vs control group", "setting": "[4]; disseminated disease (n=47)", "value": "no difference"}, {"measurement": "Overall survival vs control group", "setting": "[4]; disseminated disease (n=47)", "value": "significantly lower"}, {"measurement": "3-year event-free survival", "setting": "[4]; disseminated disease, post-hoc", "value": 42, "unit": "%"}, {"measurement": "3-year overall survival", "setting": "[4]; disseminated disease, post-hoc", "value": 45, "unit": "%"}, {"measurement": "3-year event-free survival", "setting": "[4]; entire sample", "value": 54, "unit": "%"}, {"measurement": "3-year overall survival", "setting": "[4]; entire sample", "value": 70, "unit": "%"}, {"measurement": "Event-free survival or overall survival vs control group", "setting": "[4]; entire sample", "value": "no significant difference"}, {"measurement": "Deaths, number", "setting": "[4]; localised disease", "value": "six"}, {"measurement": "Events, number", "setting": "[4]; localised disease", "value": 14}, {"measurement": "Event-free survival or overall survival vs control group", "setting": "[4]; localised disease (n=77)", "value": "no significant difference"}, {"measurement": "3-year event-free survival", "setting": "[4]; localised disease, post-hoc", "value": 60, "unit": "%"}, {"measurement": "3-year overall survival", "setting": "[4]; localised disease, post-hoc", "value": 83, "unit": "%"}, {"measurement": "Hearing loss (ASHA criteria), proportion of participants", "setting": "[5]; 4 weeks after final cisplatin, all assessable participants (49 in STS group)", "value": 28.6, "unit": "%"}, {"measurement": "Incidence of hearing loss", "setting": "[5]; after cisplatin infusion of 2-6 h", "value": 41.7, "unit": "%"}, {"measurement": "Incidence of hearing loss", "setting": "[5]; after cisplatin infusion of less than 2 h", "value": 16.0, "unit": "%"}, {"measurement": "Incidence of hearing loss", "setting": "[5]; older patients (5 years or more)", "value": 31.4, "unit": "%"}, {"measurement": "Incidence of hearing loss", "setting": "[5]; participants younger than 5 years", "value": 21.4, "unit": "%"}, {"measurement": "Hearing loss", "setting": "[5]; post-hoc, eight irradiated participants excluded", "value": 26.7, "unit": "%"}, {"measurement": "Hearing loss", "setting": "[5]; stratum of previous cranial irradiation", "value": 50, "unit": "%"}, {"measurement": "Change between groups (Control vs STS) in mean hearing threshold change", "setting": "[5]; 500 Hz", "value": 0.4}, {"measurement": "Mean change in hearing threshold", "setting": "[5]; 500 Hz", "value": "−1.5"}, {"measurement": "Change between groups (Control vs STS) in mean hearing threshold change", "setting": "[5]; 1000 Hz", "value": 0.4}, {"measurement": "Mean change in hearing threshold", "setting": "[5]; 1000 Hz", "value": "−0.7"}, {"measurement": "Change between groups (Control vs STS) in mean hearing threshold change", "setting": "[5]; 2000 Hz", "value": 1.8}, {"measurement": "Mean change in hearing threshold", "setting": "[5]; 2000 Hz", "value": "−1.2"}, {"measurement": "Change between groups (Control vs STS) in mean hearing threshold change", "setting": "[5]; 4000 Hz", "value": 8.5}, {"measurement": "Mean change in hearing threshold", "setting": "[5]; 4000 Hz", "value": 1.1}, {"measurement": "Change between groups (Control vs STS) in mean hearing threshold change", "setting": "[5]; 8000 Hz", "value": 7.3}, {"measurement": "Mean change in hearing threshold", "setting": "[5]; 8000 Hz", "value": 9.7}, {"measurement": "ASHA-defined hearing loss", "setting": "[5]; at 1 year, post-hoc analysis", "value": 28, "unit": "%"}]}, {"molecule": "N.N.[Cl][Pt][Cl]", "note": "[cisplatin]", "values": [{"measurement": "Patients having Brock grade 0 or little to no hearing loss", "setting": "[6]; by treatment arm", "value": "below 40%"}, {"measurement": "Incidence rate of Brock ≥1 hearing loss", "setting": "[6]; by treatment arm (cisplatin only or cisplatin followed by STS)", "value": 67, "unit": "%"}, {"measurement": "Stability post dilution", "setting": "[7]", "value": "≤ 7", "unit": "days"}]}]}
